Measurements reported in patent publication US20240279176A1, “SUBSTITUTED TRICYCLIC HETEROCYCLIC COMPOUNDS AS METALLO-BETA-LACTAMASE INHIBITORS” (priority 2021, published 2024).
Where two headings read alike, the source gives them in different places.

How the values were obtained:
[1] = test system: Klebsiella pneumoniae ATCC BAA-2146; assay: Checkerboard synergy assay in combination with Imipenem; assay type: cell-based; settings: K. pneumoniae ATCC BAA-2146; for Fold reduction in Imipenem MIC in the presence of compounds (μg/mL) 4: compound at 4 μg/mL; for Fold reduction in Imipenem MIC in the presence of compounds (μg/mL) 8: compound at 8 μg/mL; for Fold reduction in Imipenem MIC in the presence of compounds (μg/mL) 16: compound at 16 μg/mL; for Fold reduction in Imipenem MIC in the presence of compounds (μg/mL) 32: compound at 32 μg/mL
Description: (§1) The strain included in the study was Klebsiella pneumoniae ATCC BAA-2146 (Himedia®, India) with presence of New Delhi metallo-β-lactamase (NDM-1) gene. The quality control reference strains Escherichia coli ATCC 25922 and Pseudomonas aeruginosa ATCC 27853 were procured from Himedia®, India.
(§2) The fold modulation activity of test compounds, in combination with Imipenem or Meropenem, was checked against Klebsiella pneumoniae ATCC BAA-2146 strain by the broth-microdilution checkerboard synergy assay. The plates contained 5×10^5 CFU/mL bacterial inocula and 2-fold serial dilutions of the antibiotics (128-2 μg/mL) as well as test compounds (32-4 μg/mL) in a total volume of 200 μL of CA-MHB. Dimethyl sulfoxide (DMSO, ≤2.5%) was included as vehicle control. Following 16-18 h of incubation at 37° C., the MICs of antibiotics as well as drug combinations were visually inspected.

[2] = test system: Klebsiella pneumoniae ATCC BAA-2146; assay: Checkerboard synergy assay in combination with Meropenem; assay type: cell-based; settings: K. pneumoniae ATCC BAA-2146; for Fold reduction in meropenem MIC in the presence of compounds (μg/mL) 4: compound at 4 μg/mL; for Fold reduction in meropenem MIC in the presence of compounds (μg/mL) 8: compound at 8 μg/mL; for Fold reduction in meropenem MIC in the presence of compounds (μg/mL) 16: compound at 16 μg/mL; for Fold reduction in meropenem MIC in the presence of compounds (μg/mL) 32: compound at 32 μg/mL
Description: as §1, §2

IMP-1 = IMP-1 (Serratia marcescens, UniProt P52699); assay: Enzyme activity: IC50 in fluorescence assay with cephalosporin substrate FC5; assay type: biochemical; settings: 100 pM IMP-1, 10 μM FC5, 10 min pre-incubation
Experimental: (§3) The Class B beta-lactamases activities were measured in the presence of the test inhibitors in a fluorescence assay against an in-house synthesized fluorescent cephalosporin substrate FC5 (Berkel, et. al. J. Med. Chem. 2013, 56(17), 6945). The enzymes (NDM-1, IMP-1) and the substrate were diluted in 20 mM HEPES, pH 7.4, supplemented with 300 mM NaCl and 10 μM ZnSO4. In the assay, the final concentration of enzyme was 50 pM, and 100 pM for NDM-1, and IMP-1 respectively, and the final concentration of FC5 was 1.5 μM for NDM-1 and 10 μM for IMP-1. The test inhibitors/compounds were dissolved in dimethylsulfoxide (DMSO) and diluted in the assay with assay buffer (20 mM HEPES, pH 7.4, supplemented with 5% DMSO, 300 mM NaCl and 10 μM ZnSO4), resulting in a final concentration range of 0.008 μM to 25 μM. The assays were performed in 96-well microplate (flat bottom, black). The test inhibitors were incubated with the MBL enzyme for 10 min at room temperature, followed by addition the substrate and the fluorescence was recorded immediately (λex 380 nm, λem 460 nm) on a microplate reader. Using the initial velocity data plotted against the inhibitor concentration, the half-maximal inhibitory concentrations were calculated by an IC50 curve-fitting model in GraphPad Prism 9 software.

NDM-1 = NDM-1 (Klebsiella pneumoniae, UniProt C7C422); assay: as above; assay type: biochemical; settings: 50 pM NDM-1, 1.5 μM FC5, 10 min pre-incubation
Experimental: as §3

[3] = test system: Klebsiella pneumoniae ATCC BAA-2146; assay: Minimum inhibitory concentration (MIC), broth-microdilution (CLSI); assay type: cell-based; settings: ATCCBAA2146, compound alone, K. pneumoniae ATCC BAA-2146, read-out: Intrinsic MIC
Description: as §1
MIC values were identified through broth-microdilution in sterilized 96-well polystyrene flat-bottom microtitre plates (Cole-Parmer®) according to the guideline of the Clinical and Laboratory Standards Institute (CLSI) (CLSI; Methods for dilution antimicrobial susceptibility tests for bacteria that grow aerobically; Clinical Laboratory Standards Institute, M07-A09, 2012). This method involves the use of BBL™ Cation-adjusted Mueller-Hinton II Broth (CA-MHB; BD) and the strain (Klebsiella pneumoniae ATCC BAA-2146) concentration was adjusted to 5×10^5 CFU/mL. After 16-18 h of incubation at various concentrations of Imipenem, Meropenem (Alfa Aesar), or test compounds at 37° C., MIC was defined as the lowest concentration of antibiotic or test compound with no visible growth.

Sequence of NDM-1 (C7C422 29-270, looked up): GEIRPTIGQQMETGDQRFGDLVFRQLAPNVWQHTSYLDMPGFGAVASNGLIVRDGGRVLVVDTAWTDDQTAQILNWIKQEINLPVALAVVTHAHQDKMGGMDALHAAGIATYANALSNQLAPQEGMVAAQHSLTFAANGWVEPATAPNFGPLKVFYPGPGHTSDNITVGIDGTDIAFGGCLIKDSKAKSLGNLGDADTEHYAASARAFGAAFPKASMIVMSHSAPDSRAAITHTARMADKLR
Sequence of IMP-1 (P52699 19-246, looked up, species assumed): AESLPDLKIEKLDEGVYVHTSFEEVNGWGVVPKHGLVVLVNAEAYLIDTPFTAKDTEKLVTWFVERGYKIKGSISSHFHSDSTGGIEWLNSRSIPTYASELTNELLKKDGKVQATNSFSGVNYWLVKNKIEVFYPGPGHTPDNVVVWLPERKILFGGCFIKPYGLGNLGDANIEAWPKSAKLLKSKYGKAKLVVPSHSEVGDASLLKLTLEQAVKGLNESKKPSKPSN

Structure (SMILES)	Fold reduction in Imipenem MIC in the presence of compounds (μg/mL) 4 [1] [fold]	Fold reduction in Imipenem MIC in the presence of compounds (μg/mL) 8 [1] [fold]	Fold reduction in Imipenem MIC in the presence of compounds (μg/mL) 16 [1] [fold]	Fold reduction in Imipenem MIC in the presence of compounds (μg/mL) 32 [1] [fold]	Fold reduction in meropenem MIC in the presence of compounds (μg/mL) 4 [2] [fold]	Fold reduction in meropenem MIC in the presence of compounds (μg/mL) 8 [2] [fold]	Fold reduction in meropenem MIC in the presence of compounds (μg/mL) 16 [2] [fold]	Fold reduction in meropenem MIC in the presence of compounds (μg/mL) 32 [2] [fold]	IC50 (IMP-1) [µM]	IC50 (NDM-1) [µM]	MIC ([3]; Imipenem series) [µg/mL]	MIC ([3]; meropenem series) [µg/mL]
O=C(O)c1[nH]c2c(c1-c1cccc(F)c1F)CCc1ccccc1-2 [Example 47, 3-(2,3-difluorophenyl)-4,5-dihydro-1H-benzo[g]indole-2-carboxylic Acid]	2	4	4	8	2	4	4	4	3.3	0.323	> 128	> 128
O=C(O)c1[nH]c2c(c1-c1cncc(F)c1)CCc1ccccc1-2 [Example 53, 3-(5-fluoropyridin-3-yl)-4,5-dihydro-1H-benzo[g]indole-2-carboxylic Acid]	4	4	4	8		2	4	4	3.74	0.334	> 128	> 128
O=C(O)c1[nH]c2c(c1-c1ccc(F)c(F)c1)CCc1ccccc1-2 [Example 37, 3-(3,4-Difluorophenyl)-4,5-dihydro-1H-benzo[g]indole-2-carboxylic Acid]	2	2	4	4	4	4	4	4	3.86	0.342	> 64	> 64
O=C(O)c1[nH]c2c(c1-c1ccncc1)CCc1ccccc1-2 [Example 51, 3-(pyridin-4-yl)-4,5-dihydro-1H-benzo[g]indole-2-carboxylic Acid]	4	4	8	8	4	4	8	8	11.1	0.604	> 128	> 128
O=C(O)c1[nH]c2c(c1-c1cc(F)cc(F)c1)CCc1ccccc1-2 [Example 52, 3-(3,5-difluorophenyl)-4,5-dihydro-1H-benzo[g]indole-2-carboxylic Acid]	4	4	8	8		2	2	4	4.87	0.158	> 128	> 128

Molecules with a lower IC50 (IMP-1), results first:

Fold reduction in Imipenem MIC in the presence of compounds (μg/mL) 4 [1] [fold]	Fold reduction in Imipenem MIC in the presence of compounds (μg/mL) 8 [1] [fold]	Fold reduction in Imipenem MIC in the presence of compounds (μg/mL) 16 [1] [fold]	Fold reduction in Imipenem MIC in the presence of compounds (μg/mL) 32 [1] [fold]	Fold reduction in meropenem MIC in the presence of compounds (μg/mL) 4 [2] [fold]	Fold reduction in meropenem MIC in the presence of compounds (μg/mL) 8 [2] [fold]	Fold reduction in meropenem MIC in the presence of compounds (μg/mL) 16 [2] [fold]	Fold reduction in meropenem MIC in the presence of compounds (μg/mL) 32 [2] [fold]	IC50 (IMP-1) [µM]	IC50 (NDM-1) [µM]	MIC ([3]; Imipenem series) [µg/mL]	MIC ([3]; meropenem series) [µg/mL]	Structure (SMILES)
			2	4	4	4	8	2.67	0.143	> 128	> 128	COc1cc(F)ccc1-c1c(C(=O)O)[nH]c2c1CCc1ccccc1-2 [Example 56, 3-(4-fluoro-2-methoxyphenyl)-4,5-dihydro-1H-benzo[g]indole-2-carboxylic Acid]
2	4	4	8	4	4	8	8	1.81	0.248	> 128	> 128	COc1ccccc1-c1c(C(=O)O)[nH]c2c1CCc1ccccc1-2 [Example 35, 3-(2-methoxyphenyl)-4,5-dihydro-1H-benzo[g]indole-2-carboxylic Acid]
4	4	8	16	4	8	8	16	0.552	0.015	> 128	> 128	COc1cc(Cl)cc(-c2c(C(=O)O)[nH]c3c2CCc2ccccc2-3)c1 [Example 59, 3-(3-chloro-5-methoxyphenyl)-4,5-dihydro-1H-benzo[g]indole-2-carboxylic Acid]
4	4	8	8	4	4	4	8	1.15	0.079	> 128	> 128	O=C(O)c1[nH]c2c(c1-c1cccc(F)c1)CCc1ccccc1-2 [Example 42, 3-(3-Fluorophenyl)-4,5-dihydro-1H-benzo[g]indole-2-carboxylic Acid]
4	4	4	4	4	4	4	4	1.1	0.019	> 128	> 128	O=C(O)c1[nH]c2c(c1-c1ccccc1Cl)CCc1ccccc1-2 [Example 44, 3-(2-chlorophenyl)-4,5-dihydro-1H-benzo[g]indole-2-carboxylic Acid]
